pEC50, pIC50: −log10 of the molar value. Where a name gives a salt, the structure may show the parent alone.
Assays:
Enterovirus A71 = assay: Antiviral activity against human EV71 infected in HEK293 cells assessed as reduction in viral replication at MOI of 1 incubated for 48 hrs by luciferase assay; assay type: functional, organism-based; conditions: Enterovirus A, HEK293, 48 h
[1] = test system: Human immunodeficiency virus 1; assay: Antiviral activity against HIV1 infected in H9 cells assessed as reduction in viral replication; assay type: functional, organism-based; conditions: Human immunodeficiency virus 1, H9
H9 = assay: Antitumor activity against human H9 cells assessed as cell growth inhibition; assay type: functional, cell-based
Hepatitis B virus = assay: Antiviral activity against HBV genotype A infected in human HepG2 cells assessed as inhibition of viral replication; assay type: functional, organism-based
[2] = Cytotoxicity against African green monkey Vero cells assessed as reduction in cell viability measured after 72 hrs by MTT assay; assay type: toxicity, cell-based; conditions: chlorocebus sabaeus
Ebolavirus = assay: Antiviral activity against Ebola virus infected in African green monkey Vero cells incubated for 3 days by immunofocus assay; assay type: functional, organism-based; conditions: Orthoebolavirus, 72 h
Monkeypox virus = assay: Antiviral activity against Monkeypox virus V79-1-005 infected in Vero cells assessed as reduction in viral replication measured after 4 days by colorimetric assay; assay type: functional, organism-based; conditions: V79-1-005, Vero, 96 h
Hepatitis C virus = assay: Antiviral activity against Hepatitis C virus infected in Huh7.5 cells assessed as reduction in viral growth; assay type: functional, organism-based, Hepacivirus hominis
[3] = test system: Human immunodeficiency virus 1; assay: Antiviral activity against HIV-1 3B infected in human MT4 cells assessed as reduction in virus induced cytopathic effect incubated for 5 days by Cell Titer Glo luminescent assay; assay type: functional, organism-based; conditions: Human immunodeficiency virus 1, 3B, MT4, 120 h
[4] = test system: Respiratory syncytial virus; assay: Antiviral activity against RSV A2 infected in human HepG2 cells assessed as inhibition of virus induced cytopathic effect measured after 72 hrs by MTT assay; assay type: functional, organism-based; conditions: HepG2, 72 h
[5] = test system: Respiratory syncytial virus; assay: Antiviral activity against RSV infected in human HepG2 cells assessed as inhibition of virus induced cytopathic effect measured for 60 mins by MTT assay; assay type: functional, organism-based; conditions: HepG2, 1 h
SARS-CoV-2 [6] = assay: Antiviral activity against SARS-CoV-2 USA-WA1/2020 infected in human A549-ACE2 cells assessed as reduction in viral replication; assay type: functional, organism-based; conditions: Severe acute respiratory syndrome coronavirus 2, USA-WA1/2020, A549-ACE2
Chikungunya virus = assay: Antiviral activity against CHIKV infected in Vero 76 cells assessed as reduction in cytopathic effect; assay type: functional, organism-based
SARS-CoV-2 [7] = assay: Antiviral activity against SARS-CoV-2 infected in African green monkey Vero cells assessed as reduction in viral replication incubated for 24 hrs by Immunofluorescence assay; assay type: functional, organism-based; conditions: Severe acute respiratory syndrome coronavirus 2, Vero
SARS-CoV-2 [8] = assay: Antiviral activity against SARS-CoV-2 infected in […] Vero cells assessed as reduction in viral replication incubated for 24 hrs by Immunofluorescence assay; assay type: functional, organism-based; conditions: Severe acute respiratory syndrome coronavirus 2, Vero
SARS-CoV-2 [9] = assay: Antiviral activity against SARS-CoV-2 infected in African green monkey Vero E6 cells assessed as inhibition of virus growth; assay type: functional, organism-based; conditions: Severe acute respiratory syndrome coronavirus 2, Vero C1008
[10] = test system: Middle East respiratory syndrome-related coronavirus; assay: Antiviral activity against MERS-CoV infected in human Calu-3 cells assessed as inhibition of viral growth; assay type: functional, organism-based
Human coronavirus 229E = assay: Antiviral activity against HCoV-229E infected in human MRC5 cells incubated for 3 days measured by crystal violet staining based plaque counting analysis; assay type: functional, organism-based; conditions: MRC5, 72 h
[11] = test system: Middle East respiratory syndrome-related coronavirus; assay: Antiviral activity against MERS-CoV infected in human MRC5 cells assessed as reduction in viral replication measured after 48 hrs by qRT-PCR assay; assay type: functional, organism-based; conditions: MRC5, 48 h

## O=C(CCNC(=O)c1ccc(OC(F)(F)F)cc1)C[C@H]1CCCc2ccccc21
Enterovirus A71
  pIC50: 7.18

## CCN(CC)S(=O)(=O)c1ccc(OC)c(NC(=O)Cc2ccccc2[N+](=O)[O-])c1
[1]
  pEC50: 4.60
H9
  pIC50: < 4.00

## CC[C@@H]1NC(=O)[C@H]([C@@H]2O[C@@H](Sc3cccc(OCc4ccccc4)c3)C[C@H]2C)N(C)C(=O)[C@H](C(C)C)N(C)C(=O)[C@H](CC(C)C)N(C)C(=O)[C@H](CC(C)C)N(C)C(=O)[C@@H](C)NC(=O)[C@H](C)NC(=O)[C@H](CC(C)C)N(C)C(=O)[C@H](C(C)C)NC(=O)[C@H](CC(C)C)N(C)C(=O)CN(C)C1=O
Hepatitis B virus
  pIC50: 6.96

## COc1ccccc1NC(=O)c1ccccc1Sc1ccc([N+](=O)[O-])cc1
[1]
  pEC50: 5.22

## CCCCCN(CC)c1ccc(Oc2ccc(-c3c(C)c(=O)c4c(F)cccc4n3C)cc2F)cc1
[2]
  CC50 at 72 h: 10700 nM
Ebolavirus
  pIC50: 8.15

## CC[C@H](CC#N)OC(=O)N[C@@H](C)c1cccc(NC(=O)Nc2ccc(-c3cnco3)c(OC)c2)c1 [AVN-944]
Monkeypox virus
  pEC50: 7.46

## COCCNC(=O)[C@@H]1C[C@@H](Sc2nc3ccccc3[nH]2)CN1Cc1ccc2c(c1)Cc1ccccc1-2
Hepatitis C virus
  pEC50: 8.70
[3]
  pEC50: 8.70
[4]
  pEC50: 8.70
[5]
  pEC50: 8.70

## COc1ccc([C@H]2c3[nH]c4ccc(Cl)cc4c3CCN2C(=O)Oc2ccc(Cl)cc2)cc1 [EMVODODSTAT]
SARS-CoV-2 [6]
  pEC50: 8.70

## C/C=C/C[C@@H](C)[C@@H](O)[C@H]1C(=O)N[C@@H](CC)C(=O)N(C)CC(=O)N(C)[C@@H](CC(C)C)C(=O)N[C@@H](C(C)C)C(=O)N(C)[C@@H](CC(C)C)C(=O)N[C@@H](C)C(=O)N[C@H](C)C(=O)N(C)[C@@H](CC(C)C)C(=O)N(C)[C@@H](CC(C)C)C(=O)N(C)[C@@H](C(C)C)C(=O)N1C [CYCLOSPORINE]
Hepatitis B virus
  pIC50: 5.24

## COc1cc2c(cc1C(=O)Nc1ccc(C(C)(C)C#N)cc1)CCCCC2
Chikungunya virus
  pEC50: 6.57

## CC[C@H](C)[C@H]1NC(=O)[C@@H](NC(=O)[C@@H](CC(C)C)N(C)C(=O)[C@@H]2CCCN2C(=O)C(C)=O)[C@@H](C)OC(=O)[C@H](Cc2ccc(OC)cc2)N(C)C(=O)[C@@H]2CCCN2C(=O)[C@H](CC(C)C)NC(=O)[C@@H](C)C(=O)[C@H](C(C)C)OC(=O)C[C@@H]1O [PLITIDEPSIN]
SARS-CoV-2 [7]
  pEC50: 9.15

## N=C(N)Nc1ccc(C(=O)Oc2ccc3cc(C(=N)N)ccc3c2)cc1 [NAFAMOSTAT MESYLATE]
SARS-CoV-2 [8]
  pEC50: 8.30
SARS-CoV-2 [9]
  pEC50: 8.85
[10]
  pEC50: 8.23

## COC(=O)[C@H]1[C@@H](O)[C@@]2(O)c3c(OC)cc(O[C@@H]4O[C@@H]([C@H](O)CO)CO[C@H]4OC)cc3O[C@@]2(c2ccc(OC)cc2)[C@@H]1c1ccccc1 [SILVESTROL]
Human coronavirus 229E
  pEC50: 8.52
[11]
  pEC50: 8.89

From ChEMBL document CHEMBL5518183, “Broad-spectrum antiviral strategy: Host-targeting antivirals against emerging and re-emerging viruses” (Eur J Med Chem, 2024)
